Assay results from patent publication US20070128217A1 (priority 2003, published 2007).

Experiments:
[1] = system: antibodies in sera from SARS patients (sera 1a, 1b, 2, 6, 37, 62, London, SARS-yellow, SARS-green); assay type: binding, human; parameters: Binding of serum 6 to linear peptides of protein X1 of SARS-CoV Urbani / Binding of serum 37 to linear peptides of protein X1 of SARS-CoV Urbani / Binding of serum 6 to looped/cyclic peptide (PEPSCAN-ELISA) / Binding of serum 37 to looped/cyclic peptide (PEPSCAN-ELISA) / Binding of serum 37 to looped/cyclic peptides of protein X1 of SARS-CoV Urbani / Binding of serum 6 to linear peptides of protein X2 / Binding of serum 37 to linear peptides of protein X2 / Binding of serum 37 to looped/cyclic peptides of protein X2 of SARS-CoV Urbani / Binding of serum 6 to linear peptides of protein M of SARS-CoV Urbani / Binding of serum 37 to linear peptides of protein M of SARS-CoV Urbani / Binding of serum 6 to looped/cyclic peptides of protein M of SARS-CoV Urbani / Binding of serum 37 to looped/cyclic peptides of protein M of SARS-CoV Urbani / Binding of serum 6 to linear peptides of protein X3 of SARS-CoV Urbani / Binding of serum 37 to linear peptides of protein X3 of SARS-CoV Urbani / Binding of serum 37 to looped/cyclic peptides of protein X3 of SARS-CoV Urbani / Binding of serum 6 to linear peptides of protein X4 of SARS-CoV Urbani / Binding of serum 37 to linear peptides of protein X4 of SARS-CoV Urbani / Binding of serum 37 to looped/cyclic peptides of protein X4 of SARS-CoV Urbani / Binding of serum 6 to linear peptides of protein X5 of SARS-CoV Urbani / Binding of serum 37 to linear peptides of protein X5 of SARS-CoV Urbani / Binding of serum 37 to looped/cyclic peptides of protein X5 of SARS-CoV Urbani / Binding of serum 6 to linear peptides of protein N of SARS-CoV Urbani / Binding of serum 37 to linear peptides of protein N of SARS-CoV Urbani / Binding of serum 6 to linear peptide (PEPSCAN-ELISA) / Binding of serum 1a to looped/cyclic peptides of protein N of SARS-CoV Urbani / Binding of serum 1b to looped/cyclic peptides of protein N of SARS-CoV Urbani / Binding of serum 2 to looped/cyclic peptides of protein N of SARS-CoV Urbani / Binding of serum 6 to looped/cyclic peptides of protein N of SARS-CoV Urbani / Binding of serum 37 to looped/cyclic peptides of protein N of SARS-CoV Urbani / Binding of serum 62 to looped/cyclic peptides of protein N of SARS-CoV Urbani / Binding of serum London to looped/cyclic peptides of protein N of SARS-CoV Urbani / Binding of serum SARS-green to looped/cyclic peptides of protein N of SARS-CoV Urbani: unit not given here
[2] = system: control sera (pooled serum of ten healthy LUMC hospital workers; commercial negative donor pooled serum from the Dutch bloodbank); assay type: binding, human; parameters: Binding of Control serum LUMC to linear peptides / Binding of Control serum Blood-bank to linear peptides / Binding of Control serum LUMC to looped peptides / Binding of Control Serum Blood-Bank to Looped peptides / Binding of Control serum LUMC to linear peptides of the protein M of SARS-CoV Urbani / Binding of Control serum Blood-bank to linear peptides of the protein M of SARS-CoV Urbani / Binding of Control serum LUMC to looped peptides of the protein M of SARS-CoV Urbani / Binding of Control Serum Blood-Bank to Looped peptides of the protein M of SARS-CoV Urbani: unit not given here
[3] = system: rabbit serum obtained by immunizing a rabbit with the SARS-CoV strain Frankfurt 1; assay type: binding; parameters: Binding of a rabbit serum to linear peptides / Binding of a rabbit serum to looped peptides / Rabbit serum linear peptides / Rabbit serum looped peptides / Binding of a rabbit serum to linear peptides of protein N of SARS-CoV Urbani (Rabbit serum linear peptides) / Binding of a rabbit serum to looped/cyclic peptides of protein N of SARS-CoV Urbani (Rabbit serum looped peptides): unit not given here

With LLKEPCPSGTYEGNS the “Binding of serum 1a to linear peptides of protein X4 of SARS-CoV Urbani” value [1] was 0.8, the “Binding of serum 1a to looped/cyclic peptides of protein X4 of SARS-CoV Urbani” value [1] was 0.8 and the “Binding of serum 1b to linear peptides of protein X4 of SARS-CoV Urbani” value [1] was 0.6. The “Binding of serum 1b to looped/cyclic peptides of protein X4 of SARS-CoV Urbani” value [1] was 0.6, the “Binding of serum 2 to linear peptides of protein X4 of SARS-CoV Urbani” value [1] was 0.3 and the “Binding of serum 2 to looped/cyclic peptides of protein X4 of SARS-CoV Urbani” value [1] was 0.6. For the same sequence, the “Binding of serum 6 to linear peptides of protein X4 of SARS-CoV Urbani” value [1] was 0.6, the “Binding of serum 6 to looped/cyclic peptides of protein X4 of SARS-CoV Urbani” value [1] was 0.7 and the “Binding of serum 37 to linear peptides of protein X4 of SARS-CoV Urbani” value [1] was 0.6. The “Binding of serum 37 to looped/cyclic peptides of protein X4 of SARS-CoV Urbani” value [1] was 0.7, the “Binding of serum 62 to linear peptides of protein X4 of SARS-CoV Urbani” value [1] was 0.8 and the “Binding of serum 62 to looped/cyclic peptides of protein X4 of SARS-CoV Urbani” value [1] was 0.5. For the same sequence, the “Binding of serum London to linear peptides of protein X4 of SARS-CoV Urbani” value [1] was 0.8, the “Binding of serum London to looped/cyclic peptides of protein X4 of SARS-CoV Urbani” value [1] was 0.3 and the “Binding of serum SARS-green to linear peptides of protein X4 of SARS-CoV Urbani” value [1] was 0.5. For the same sequence, the “Binding of serum SARS-green to looped/cyclic peptides of protein X4 of SARS-CoV Urbani” value [1] was 0.7, the “Binding of serum SARS-yellow to linear peptides of protein X4 of SARS-CoV Urbani” value [1] was 0.2 and the “Binding of serum SARS-yellow to looped/cyclic peptides of protein X4 of SARS-CoV Urbani” value [1] was 0.2. The “Binding of Control Serum Blood-Bank to Looped peptides” value [2] was 0.6, the “Binding of Control serum Blood-bank to linear peptides” value [2] was 0.6 and the “Binding of Control serum LUMC to linear peptides” value [2] was 0.6. For the same sequence, the “Binding of Control serum LUMC to looped peptides” value [2] was 0.8, the “Rabbit serum linear peptides” value [3] was 0.3 and the “Rabbit serum looped peptides” value [3] was 0.1.
For QLLEQWNLVIGFLFL, the “Binding of serum 1a to linear peptides of protein M of SARS-CoV Urbani” value [1] was 0.7, the “Binding of serum 1a to looped/cyclic peptides of protein M of SARS-CoV Urbani” value [1] was 0.5 and the “Binding of serum 1b to linear peptides of protein M of SARS-CoV Urbani” value [1] was 0.4. The “Binding of serum 1b to looped/cyclic peptides of protein M of SARS-CoV Urbani” value [1] was 0.5, the “Binding of serum 2 to linear peptides of protein M of SARS-CoV Urbani” value [1] was 0.5 and the “Binding of serum 2 to looped/cyclic peptides of protein M of SARS-CoV Urbani” value [1] was 0.4. For the same sequence, the “Binding of serum 6 to linear peptides of protein M of SARS-CoV Urbani” value [1] was 0.4, the “Binding of serum 6 to looped/cyclic peptides of protein M of SARS-CoV Urbani” value [1] was 0.5 and the “Binding of serum 37 to linear peptides of protein M of SARS-CoV Urbani” value [1] was 0.6. For the same sequence, the “Binding of serum 37 to looped/cyclic peptides of protein M of SARS-CoV Urbani” value [1] was 0.5, the “Binding of serum 62 to linear peptides of protein M of SARS-CoV Urbani” value [1] was 0.6 and the “Binding of serum 62 to looped/cyclic peptides of protein M of SARS-CoV Urbani” value [1] was 0.4. The “Binding of serum London to linear peptides of protein M of SARS-CoV Urbani” value [1] was 0.4, the “Binding of serum London to looped/cyclic peptides of protein M of SARS-CoV Urbani” value [1] was 0.2 and the “Binding of serum SARS-green to linear peptides of protein M of SARS-CoV Urbani” value [1] was 0.2. For the same sequence, the “Binding of serum SARS-green to looped/cyclic peptides of protein M of SARS-CoV Urbani” value [1] was 0.3, the “Binding of serum SARS-yellow to linear peptides of protein M of SARS-CoV Urbani” value [1] was 0.0 and the “Binding of serum SARS-yellow to looped/cyclic peptides of protein M of SARS-CoV Urbani” value [1] was 0.7. The “Binding of Control Serum Blood-Bank to Looped peptides of the protein M of SARS-CoV Urbani” value [2] was 0.5, the “Binding of Control serum Blood-bank to linear peptides of the protein M of SARS-CoV Urbani” value [2] was 0.5 and the “Binding of Control serum LUMC to linear peptides of the protein M of SARS-CoV Urbani” value [2] was 0.3. For the same sequence, the “Binding of Control serum LUMC to looped peptides of the protein M of SARS-CoV Urbani” value [2] was 0.7, the “Rabbit serum linear peptides” value [3] was 0.2 and the “Rabbit serum looped peptides” value [3] was 0.0.
